Results published in ChEMBL document CHEMBL1201862, “PubChem BioAssay data set” (2004).
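Where inhibition never reached the appropriate level, the endpoint shown equals the highest concentration tested. Otherwise, values were interpolated linearly from a five-concentration, 48-hour dose response in 96-well plates. Here, GI50 denotes the concentration required for 50% inhibition of growth.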 The source made the active and inactive calls. No stated cut-off is given here; in the data, active = GI50 up to about 1.1 µM and inactive = higher.

Assays:
Assay in all cases: NCI anticancer screen, dose series, 48 h
ACHN = test system: ACHN
EKVX = test system: EKVX
SW-620 = test system: SW-620
MCF7 = test system: MCF7
OVCAR-3 = test system: OVCAR-3
SK-MEL-28 = test system: SK-MEL-28
OVCAR-8 = test system: OVCAR-8
UO-31 = test system: UO-31
IGROV-1 = test system: IGROV-1
HT-29 = test system: HT-29
MDA-N = test system: MDA-N
SR = test system: SR
LOX IMVI = test system: LOX IMVI
CAKI-1 = test system: CAKI-1
UACC-257 = test system: UACC-257
OVCAR-5 = test system: OVCAR-5
SN12C = test system: SN12C
K562 = test system: K562
SK-OV-3 = test system: SK-OV-3
CCRF-CEM = test system: CCRF-CEM

Measured: GI50

CCOC(=O)C1=NN(c2ccc(C)cc2)C2=CC(C)=NN(C)C(=S)N21
inactive: ACHN 43.5 µM | EKVX 81.1 µM | SW-620 54.2 µM | MCF7 > 10 µM | OVCAR-3 60 µM | SK-MEL-28 > 100 µM | OVCAR-8 42.9 µM | UO-31 > 100 µM | IGROV-1 > 100 µM | HT-29 > 100 µM | MDA-N > 100 µM | SR > 100 µM | LOX IMVI 26.9 µM | CAKI-1 24.4 µM | UACC-257 > 100 µM | OVCAR-5 88.5 µM | SN12C > 100 µM | K562 > 100 µM | SK-OV-3 70.3 µM | CCRF-CEM > 100 µM

CCOC(=O)C(O)(NC(=O)c1ccccc1F)C(F)(F)F (stereo unspecified)
inactive: ACHN > 100 µM | EKVX > 100 µM | SW-620 > 100 µM | MCF7 > 100 µM | OVCAR-3 > 100 µM | SK-MEL-28 > 100 µM | OVCAR-8 > 100 µM | UO-31 > 100 µM | IGROV-1 84.5 µM | HT-29 > 100 µM | MDA-N > 100 µM | SR > 100 µM | LOX IMVI > 100 µM | CAKI-1 > 100 µM | UACC-257 > 100 µM | OVCAR-5 > 100 µM | SN12C > 100 µM | K562 > 100 µM | SK-OV-3 > 100 µM | CCRF-CEM > 100 µM

CC1(C)N=C(/C(Cl)=[N+](/[O-])C(=O)c2ccc(Cl)cc2)C(C)(C)N1O
inactive: ACHN 38.5 µM | EKVX > 100 µM | SW-620 20.3 µM | MCF7 17.3 µM | OVCAR-3 17.5 µM | SK-MEL-28 18.5 µM | OVCAR-8 20.4 µM | UO-31 > 100 µM | IGROV-1 41 µM | HT-29 22.1 µM | MDA-N 17.1 µM | SR 28.3 µM | LOX IMVI 6.76 µM | CAKI-1 19.2 µM | UACC-257 18.2 µM | OVCAR-5 23.6 µM | SN12C 23.8 µM | K562 5.51 µM | SK-OV-3 > 100 µM | CCRF-CEM 7.52 µM

Oc1nc2ccccc2c2oc3ccccc3c12
inactive: ACHN > 100 µM | EKVX 2.9 µM | SW-620 > 100 µM | MCF7 > 100 µM | OVCAR-3 > 100 µM | SK-MEL-28 > 100 µM | OVCAR-8 > 100 µM | UO-31 > 100 µM | IGROV-1 > 100 µM | HT-29 > 100 µM | MDA-N > 100 µM | SR > 100 µM | CAKI-1 > 100 µM | UACC-257 > 100 µM | SN12C > 100 µM | K562 > 100 µM | SK-OV-3 76 µM | CCRF-CEM > 100 µM

COc1cc([N+](=O)[O-])ccc1N1C(=O)C2c3[nH]c4ccccc4c3C3CCC(C(C)(C)C)CC3C2C1=O (stereo unspecified)
inactive: ACHN > 100 µM | EKVX 33.4 µM | SW-620 > 100 µM | MCF7 > 100 µM | OVCAR-3 > 100 µM | SK-MEL-28 9.12 µM | OVCAR-8 29 µM | UO-31 > 100 µM | IGROV-1 > 100 µM | HT-29 88.9 µM | MDA-N 40.6 µM | SR > 100 µM | LOX IMVI 18.5 µM | CAKI-1 2.04 µM | UACC-257 76.4 µM | OVCAR-5 80.5 µM | SN12C 64.4 µM | SK-OV-3 > 100 µM | CCRF-CEM 21.8 µM

CNC(=O)OC(C)CN1c2ccccc2Sc2ccc(Cl)cc21 (stereo unspecified)
inactive: ACHN > 10 µM | EKVX > 10 µM | SW-620 > 10 µM | MCF7 > 10 µM | OVCAR-3 > 10 µM | SK-MEL-28 > 10 µM | OVCAR-8 > 10 µM | UO-31 > 10 µM | IGROV-1 > 10 µM | HT-29 > 10 µM | MDA-N > 10 µM | SR > 10 µM | LOX IMVI > 10 µM | CAKI-1 > 10 µM | OVCAR-5 > 10 µM | SN12C > 10 µM | K562 > 10 µM | SK-OV-3 > 10 µM | CCRF-CEM > 10 µM
